In brackets after ≈: the same amount, converted by molar mass.

Data on 1 compound can be found in ChEMBL document CHEMBL1649482, “Gene Context and DNA rearrangements in the carbapenemase locus of division II strains of Bacteroides fragilis” (2009).

Common to all, as to format: functional
The test system of experiment [1] is Bacteroides fragilis. Description: Antimicrobial activity against Bacteroides fragilis MN5 after 24 hrs by agar dilution method. The conditions noted are these: MN5, 24 h. Background: In agar dilution, organisms are placed on agar that contains the substance at set levels.
The subject of experiment [2] is Bacteroides fragilis. The experiment in a line: Antimicrobial activity against Bacteroides fragilis MN11 expressing imipenemase activity after 24 hrs by agar dilution method. Particulars: MN11, 24 h.
Experiment [3] has as its system Bacteroides fragilis. Description: Antimicrobial activity against Bacteroides fragilis MN32 imipenemase activity after 24 hrs by agar dilution method. The conditions noted are these: MN32, 24 h.
Experiment [4] concerns Bacteroides fragilis. The experiment in a line: Antimicrobial activity against Bacteroides fragilis MN35 after 24 hrs by agar dilution method. Particulars: MN35, 24 h.
Experiment [5] relates to Bacteroides fragilis. Description: Antimicrobial activity against Bacteroides fragilis MN36 after 24 hrs by agar dilution method. Particulars: MN36, 24 h.
Experiment [6] concerns Bacteroides fragilis. Description: Antimicrobial activity against Bacteroides fragilis MN41 after 24 hrs by agar dilution method. Particulars: MN41, 24 h.
For experiment [7], the system named is Bacteroides fragilis. Description: Antimicrobial activity against Bacteroides fragilis MN4a.

`C[C@@H](O)[C@H]1C(=O)N2C(C(=O)O)=C(SCCNC=N)C[C@H]12` [IMIPENEM ANHYDROUS]: the minimal inhibitory concentration (MIC) (usually the smallest concentration in the dilution series that meets the test's criterion for growth inhibition) in the experiment on Bacteroides fragilis [1] was found to be 0.25 µg/mL (≈ 0.835 µM); in the experiment on Bacteroides fragilis [2], 256 µg/mL (≈ 855 µM); against Bacteroides fragilis [3] it was 128 µg/mL (≈ 428 µM); with Bacteroides fragilis [4], 0.25 µg/mL (≈ 0.835 µM); in the experiment with Bacteroides fragilis [5] it was 0.25 µg/mL (≈ 0.835 µM); in the experiment with Bacteroides fragilis [6], 0.25 µg/mL (≈ 0.835 µM). Besides, the MIC against Bacteroides fragilis [7] worked out at 0.5 µg/mL (≈ 1.67 µM).
